In test [1] the test system is STAT3 nuclear translocation in HeLa cells. The experiment in a line: STAT3 nuclear translocation assay in oncostatin M-stimulated HeLa cells. The format is cell-based. The note with it: for Fluorescent intensity of STAT3 in the nuclei, of the vehicle treatment: 1 h pretreatment, oncostatin M 30 ng/mL 10 min, HeLa. The protocol:
The Cellomics STAT3 Activation Kit (Thermo Scientific) was used for the nuclear translocation assay. HeLa cells were incubated in a 96-well microplate for 24 h. Cells were pretreated with the test compounds for 1 hour, and 30 ng/mL (w/v) of oncostatin M was applied and the mixture was incubated for 10 min. The subsequent procedures were performed according to the manufacturer’s instructions. The cells were scanned with an ArrayScan VTI reader (Thermo Scientific), and analyzed with the Cytoplasm to Nucleus Translocation Application. The mean fluorescent values in the nuclei were calculated. The signals for vehicle treatment and no treatment (without oncostatin M) were represented as 100% and 0%, respectively, and the relative signal intensity was also calculated.

The target of test [2] is T1, STAT5b(136–703) (Homo sapiens, UniProt P51692).
T1 construct: 136 to 703 of human STAT5b; 6×His-tag (N); made in house; host or cells: E. coli BL-21 Star (DE3) pLysS co-transformed with pBirAcm
T1 sequence (P51692 136-703): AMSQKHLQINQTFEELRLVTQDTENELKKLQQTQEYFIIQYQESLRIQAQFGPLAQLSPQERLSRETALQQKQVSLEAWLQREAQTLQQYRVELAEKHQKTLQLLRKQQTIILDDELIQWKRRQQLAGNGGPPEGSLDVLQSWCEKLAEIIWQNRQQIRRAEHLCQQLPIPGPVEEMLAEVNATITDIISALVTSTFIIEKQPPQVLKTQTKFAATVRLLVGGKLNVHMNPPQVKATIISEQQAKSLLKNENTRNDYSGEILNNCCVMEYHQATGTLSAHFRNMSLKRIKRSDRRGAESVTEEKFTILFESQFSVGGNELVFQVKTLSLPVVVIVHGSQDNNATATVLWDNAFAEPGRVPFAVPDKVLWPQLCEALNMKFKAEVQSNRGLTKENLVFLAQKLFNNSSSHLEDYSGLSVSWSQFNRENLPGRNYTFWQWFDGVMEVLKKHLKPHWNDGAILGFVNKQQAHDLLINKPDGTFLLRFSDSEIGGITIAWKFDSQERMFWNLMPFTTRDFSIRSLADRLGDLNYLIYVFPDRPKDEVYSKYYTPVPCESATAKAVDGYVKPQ
The experiment in a line: Multiplexed Alpha assay, STAT5b-SH2 binding (AlphaScreen). The note with it: multiplexed binding assay; mean and SEM, three independent experiments; read-out: IC50 STAT5b-SH2 binding (STAT5b). The protocol: (§1) Both AlphaLISA and AlphaScreen are bead-based nonradioactive binding assay systems for detecting biomolecular interactions in a microplate format. The binding of the biological partners brings the donor and acceptor beads into close proximity, and AlphaLISA produces a specific signal around 615 nm and AlphaScreen emits a broad signal between 520 and 620 nm. The assays were performed in a final reaction volume of 25 µL of the assay buffer, which contained 10 mM HEPES-NaOH (pH 7.4), 50 mM NaCl, 1 mM EDTA (pH 8.0), 0.1% (w/v) NP-40, and 10 ng/µL (w/v) BSA in a 96-well microplate at 25°C. The labeled phosphotyrosyl (pTyr, pY) peptide probes were DIG-GpYLPQTV and FITC-GpYLVLDKW for STAT3 and STAT5b, respectively. In the single assay for STAT3 binding, 100 nM STAT3(136–705) protein was incubated with a test compound dissolved in DMSO for 30 min, and 1.0 nM DIG-GpYLPQTV was added and the mixture was incubated for 90 min. Streptavidin-coated donor beads (0.25 µg/well) and anti-DIG AlphaLISA acceptor beads (0.25 µg/well) were added and incubated for 90 min before the signals were measured with EnVison Xcite (PerkinElmer Life Sciences). In the single assay for STAT5b binding, 20 nM STAT5b(136–703) was incubated with a test compound for 30 min, and 1.0 nM FITC-GpYLVLDKW was added and incubated for 90 min. Streptavidin-coated donor beads (0.25 µg/well) and anti-FITC AlphaScreen acceptor beads (0.25 µg/well) were added and incubated for 90 min before the signals were measured with EnVison Xcite. In the multiplexed assay, 100 nM STAT3(136–705) and 20 nM STAT5b(136–703) were incubated with a test compound for 30 min, and 1.0 nM DIG-GpYLPQTV and 1.0 nM FITC-GpYLVLDKW were added and incubated for 90 min. Streptavidin-coated donor beads (0.50 µg/well), anti-DIG AlphaLISA (0.25 µg/well), and anti-FITC AlphaScreen acceptor beads (0.25 µg/well) were added and incubated for 90 min before the signals were measured with EnVison Xcite. AlphaLISA and AlphaScreen signals for measuring STAT3- and STAT5b-SH2 binding, respectively, can be separately measured by using a dysprosium 572 nm and a europium 615 nm narrow bandwidth filter. In inhibitory assays, these signals for the bound state and the free state were represented as 0% and 100% inhibition, respectively. The bound state was measured by incubating the labeled peptide and the protein without test compounds. The free state was measured by incubating the same mixture with an additional 10 µM non-labeled peptide contained phosphorylated tyrosine, which competitively binds to its corresponding protein. The IC50 value was calculated by Graph pad prism 4.0. The mean and the standard error (SEM) of IC50 values were determined from three independent experiments. The Z’ value was calculated using the equation Z’ = 1–(3×SD_bound +3×SD_free)/(Signal_bound – Signal_free). STAT1 and Grb2 binding assays were performed as described in previous report. In the assays for selectivity of Compound 1, 100 pM biotinylated DIG or 100 pM biotinylated FITC was incubated with 10 µM or 30 µM Compound 1 for 30 min. Streptavidin-coated donor beads (0.25 µg/well) and anti-DIG AlphaLISA acceptor beads (0.25 µg/well) or anti-FITC AlphaScreen acceptor beads (0.25 µg/well) were added and incubated for 90 min before the signals were measured with EnVison Xcite.
In general terms: Bead proximity is the source of the signal in Alpha formats.

Test [3] concerns STAT3 reporter HeLa stable cell line. The experiment in a line: STAT3 luciferase reporter gene assay. The note with it: pretreatment before oncostatin M stimulation (Figure S10). Format: cell-based. The protocol: STAT3 reporter HeLa stable cell lines were incubated in a 96-well microplate for 24 hours. Cells were pretreated with test compounds for 1 hour, and 10 ng/ml (w/v) of oncostatin M were applied and incubated for 4 hours. Cells were washed with medium not supplemented with phenol red, and Steady-Glo® reagent (Promega) was applied. After 5 min incubation, the signals were detected by ARVO Light 1420 (PerkinElmer Life Sciences). The relative signal intensity was calculated in each well as the ratio for the mean signal of vehicle.
(Reporter assays use an easily measured gene product as a stand-in for the process of interest.)

Test [4] deals with T2, Grb2-SH2 (Homo sapiens, UniProt P62993).
T2 construct: made in house
The experiment in a line: Grb2-SH2 binding AlphaScreen assay. To be noted: AlphaScreen assay (Figure S8A). As to the method:
Both AlphaLISA and AlphaScreen are bead-based nonradioactive binding assay systems for detecting biomolecular interactions in a microplate format. The binding of the biological partners brings the donor and acceptor beads into close proximity, and AlphaLISA produces a specific signal around 615 nm and AlphaScreen emits a broad signal between 520 and 620 nm. The assays were performed in a final reaction volume of 25 µL of the assay buffer, which contained 10 mM HEPES-NaOH (pH 7.4), 50 mM NaCl, 1 mM EDTA (pH 8.0), 0.1% (w/v) NP-40, and 10 ng/µL (w/v) BSA in a 96-well microplate at 25°C. […] Streptavidin-coated donor beads (0.25 µg/well) and anti-DIG AlphaLISA acceptor beads (0.25 µg/well) were added and incubated for 90 min before the signals were measured with EnVison Xcite (PerkinElmer Life Sciences). […] Streptavidin-coated donor beads (0.25 µg/well) and anti-FITC AlphaScreen acceptor beads (0.25 µg/well) were added and incubated for 90 min before the signals were measured with EnVison Xcite. […] Streptavidin-coated donor beads (0.50 µg/well), anti-DIG AlphaLISA (0.25 µg/well), and anti-FITC AlphaScreen acceptor beads (0.25 µg/well) were added and incubated for 90 min before the signals were measured with EnVison Xcite. […] The bound state was measured by incubating the labeled peptide and the protein without test compounds. […] The IC50 value was calculated by Graph pad prism 4.0. […]

Test [5] addresses T3, STAT3(136–705) (Homo sapiens, UniProt P40763).
T3 construct: amino acids 136 to 705 of human STAT3 and 136 to 703 of human STAT5b; 6×His-tag (N); made in house; host or cells: E. coli BL-21 Star (DE3) pLysS co-transformed with pBirAcm
The experiment in a line: Single STAT3-SH2 binding assay (AlphaLISA). The note with it: non-multiplexed single assay. The protocol: as §1

The structures appear in SMILES notation.

One may read the IC50 as the concentration that inhibits the measured activity by half.

T3 sequence (P40763 136-705): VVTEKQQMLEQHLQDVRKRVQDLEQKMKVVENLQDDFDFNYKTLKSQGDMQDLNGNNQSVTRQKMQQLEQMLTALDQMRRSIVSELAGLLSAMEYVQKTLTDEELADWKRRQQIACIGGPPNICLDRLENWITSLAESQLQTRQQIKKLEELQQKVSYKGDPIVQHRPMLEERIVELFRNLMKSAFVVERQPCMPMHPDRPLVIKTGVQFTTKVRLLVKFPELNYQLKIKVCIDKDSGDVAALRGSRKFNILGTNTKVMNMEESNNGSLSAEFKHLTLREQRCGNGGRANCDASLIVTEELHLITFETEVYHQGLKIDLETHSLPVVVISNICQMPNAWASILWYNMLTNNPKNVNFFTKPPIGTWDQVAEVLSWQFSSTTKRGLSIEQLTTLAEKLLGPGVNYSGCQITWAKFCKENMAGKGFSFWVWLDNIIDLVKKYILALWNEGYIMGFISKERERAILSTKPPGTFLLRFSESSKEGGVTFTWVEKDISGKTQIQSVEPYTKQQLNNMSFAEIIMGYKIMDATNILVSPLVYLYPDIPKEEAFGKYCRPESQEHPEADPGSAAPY
T2 sequence (P62993 whole entry): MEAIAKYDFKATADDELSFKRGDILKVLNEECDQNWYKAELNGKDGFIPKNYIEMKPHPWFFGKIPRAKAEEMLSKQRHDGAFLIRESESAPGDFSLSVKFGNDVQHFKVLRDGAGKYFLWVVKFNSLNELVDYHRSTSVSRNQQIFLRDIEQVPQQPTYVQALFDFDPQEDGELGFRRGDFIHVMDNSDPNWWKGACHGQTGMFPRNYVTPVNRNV

Take `O=C1C=CC(=NC2=C(Cl)C(=O)c3ccccc3C2=O)C=C1` [Compound 1]: the “Fluorescent intensity of STAT3 in the nuclei, of the vehicle treatment” value is reported as 51% in test [1] (60 µM) and 31% in test [1] (100 µM). The “Effect on STAT3 nuclear translocation” value in test [1] (HeLa cells, pretreatment before oncostatin M (Figure 6, Figure S9)) was “reduced the STAT3 nuclear translocation in a dose-dependent manner”. The 50% inhibitory concentration (IC50) in test [2] came to 11 ± 0.27 µM; in test [5], 3.8 µM. The “Effect on STAT3 transcriptional activity” value in test [3] is on record as “reduced the STAT3 transcriptional activity in a dose-dependent manner”. The “Inhibition of Grb2-SH2 binding” value in test [4] was “inhibited neither”.

Source of the values: PMC3745430, “Novel Multiplexed Assay for Identifying SH2 Domain Antagonists of STAT Family Proteins” (PLoS ONE, 2013).
